Source: ChEMBL document CHEMBL1221397, “Bioassay-guided isolation of the antidiabetic principle from Sorbus decora (Rosaceae) used traditionally by the Eeyou Istchee Cree First Nations” (J Nat Prod, 2010)

System: C2C12
Experiment: Induction of [3H]2-deoxy-D-glucose uptake in mouse C2C12 cells after 18 hrs by scintillation counting
Type: functional, cell-based

`C=C(C)[C@@H]1CC[C@]2(CO)CC[C@]3(C)[C@H](CC[C@@H]4[C@@]5(C)CC[C@H](OC(=O)/C=C/c6ccc(O)c(O)c6)[C@@](C)(CO)[C@@H]5CC[C@]43C)[C@@H]12` showed an EC50 of 1.47 µM.
